Laboratory results reported in US8686155B2, “Aurora kinase modulators and method of use” (Amgen Inc., priority 2006, dated 2014).
Read-outs that look alike come from different tables or passages of the source.

Assays:
AuroraB = target: T1, AuroraB (Homo sapiens, UniProt Q96GD4); experiment: AuroraB Homogeneous Time Resolved Fluorescent (HTRF) kinase assay; assay type: biochemical
T1 construct: 20 μL of AuroraB FL His; His
Description: AuroraB-Homogeneous Time Resolved Fluorescent (HTRF) Kinase Assay:
The AuroraB HTRF assay begins with AuroraB in the presence of ATP phosphorylating the biotinylated peptide Histone H3. The reaction incubates for about 90 min. the reaction is quentched by addition of detection reagents, which stop the reaction by diluting out the enzyme and chelating the metals due to the presence of EDTA. After addition, the assay is incubated for about 60 min to allow detection reagents to equilibrate.
The AuroraB HTRF assay comprises 1 μL of compound in 100% DMSO, 20 μL of ATP and biotinylated Histone H3, and 20 μL of AuroraB FL His for a final volume of 41 μL. The final concentration of Histone H3 is 0.1 μM. The final concentration of ATP is 23 μM (Km(app)=23 μM+/−2.6) and the final concentration of AuroraB is 400 pM. Buffer conditions are as follows: 50 mM HEPES pH 7.5, 5 mM NaCl, 0.5 mM MgCl, 0.5 mM MnCl, 2 mM DTT, 0.05% BSA.
(§1) The assay is quenched and stopped with 160 μl, of detection reagent. Detection reagents are as follows: Buffer made of 50 mM Tris, pH 7.5, 100 mM NaCl, 3 mM EDTA, 0.05% BSA, 0.1% Tween20. Added to this buffer prior to reading is Steptavidin allophycocyanin (SA-APC) at a final conc in the assay of 0.001 mg/mL, and europilated anti-phosphoHistoneH3 Ab (Eu-anti-His H3) at a final conc of 0.064 nM.
The assay plate is read in either a Discovery or a RubyStar. The eu-anti-HisH3 is excited at 320 nm and emits at 615 nm to excite the SA-APC which in turn emits at 655 nm. The ratio of SA-APC at 655 nm (excited due to close proximity to the Eu-anti-H HisH3 because of phosphorylation of the peptide) to free Eu-anti-HisH3 at 615 nm will give substrate phosphorylation.

AuroraA-TPX2 = target: T2, AuroraA-TPX2 (Homo sapiens, UniProt O14965); experiment: AuroraA-TPX2 Homogeneous Time Resolved Fluorescent (HTRF) kinase assay; assay type: biochemical
T2 construct: 20 μL of AuroraA-TPX2 KD GST; GST
T2 sequence (O14965 133-383 limits assumed): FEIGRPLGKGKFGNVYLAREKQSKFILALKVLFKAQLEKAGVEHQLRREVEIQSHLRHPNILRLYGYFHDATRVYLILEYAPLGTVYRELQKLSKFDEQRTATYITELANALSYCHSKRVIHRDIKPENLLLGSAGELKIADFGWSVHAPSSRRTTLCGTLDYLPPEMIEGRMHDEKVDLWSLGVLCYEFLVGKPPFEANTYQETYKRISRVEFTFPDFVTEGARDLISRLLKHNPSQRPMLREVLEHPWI
T2 sequence (Q9ULW0 1-43 partner limits assumed): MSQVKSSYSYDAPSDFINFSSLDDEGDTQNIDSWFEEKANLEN
Description: AuroraA-TPX2-Homogeneous Time Resolved Fluorescent (HTRF) Kinase Assay
The Aurora-A HTRF assay begins with Aurora-A in the presence of ATP phosphorylating the biotinylated peptide PLK. The reaction incubates for about 120 min. Detection reagents are added to quench the reaction. These agents stop the reaction by diluting out the enzyme and chelating the metals due to the presence of EDTA. After addition, the assay is incubated overnight to allow the detection reagents to equilibrate.
The final concentration of PLK is about 1 μM. […] Buffer conditions are as follows: 60 mM HEPES pH 7.5, 25 mM NaCl, 10 mM MgCl, 2 mM DTT, 0.05% BSA.
as §1, with “μL” for “μl,”, “0.0005” for “0.001”, “anti-phosphoPLK” for “anti-phosphoHistoneH3”, “(Eu-anti-PLK)” for “(Eu-anti-His H3)”, “0.02” for “0.064”
The assay plate is read in either a Discovery or a RubyStar. The eu-anti-PLK is excited at 320 nm and emits at 615 nm to excite the SA-APC which in turn emits at 655 nm.

[1] = test system: phosphorylation of Histone H3 in HeLa cells; experiment: HeLa cell 1-hour phospho-histone assay; assay type: cell-based; conditions: Homo sapiens, % of cells pHH3 positive, read-out: inhibitory activity (EC50) in the phospho-histone H3 assay
Description: HeLa Cell 1-Hour Phospho-Histone Assay
The purpose of this assay is to test the inhibitory effect of Aurora compounds with respect to phosphorylation of Histone H3 in the cellular context. HeLa cells (9×10^4/well) are plated in black 96-well flat-bottom tissue culture plates and incubated for 40 hours prior to compound addition. Compounds are serially diluted in DMSO, followed by dilution into MEM containing 10 mM HEPES; 10 ul/well of diluted compounds are added to cells (0.5% DMSO final). Cells are incubated for 1 hour at 37° C. in 5% CO2. Cells are then fixed with 3.7% formaldehyde for 10 minutes, washed with wash buffer (1% goat serum and 0.1% Tween 20 in PBS), then permeabilized with 0.5% Triton X in PBS for 15 minutes. After washing with wash buffer, cells are incubated with primary antibody (Upstate #06-507 anti-phospho-histone (Ser 10) antibody (pHH3) for 1 hour at 10 ug/ml. After 2 washes with wash buffer, cells are incubated with secondary antibody (Molecular Probes #A11034 goat anti-rabbit Alexa-488 for 1 hour at 1 ug/ml+Hoechst 33342 nuclear dye at 1 ug/ml (Molecular Probes). Cells are washed 2 times with wash buffer, and buffer replaced with PBS. Plates are scanned on the Cellomics Array Scan (6 fields, ˜2000 cells/well) and % of cells that are pHH3 positive were calculated using the Cellomics algorithm.

[2] = class symbols, read-out: AurB_IC50_IP (Avg)
[3] = class symbols, read-out: AurA/TPX2_IC50_IP (Avg)
[4] = ATP 23 μM, biotinylated peptide Histone H3, read-out: average activity in the Aurora kinase B HTRF assay
[5] = ATP about 1 μM, biotinylated peptide PLK, read-out: average activity in the Aurora kinase A HTRF assay
[6] = numeric values, unit inferred, read-out: AurB_IC50_IP (Avg)
[7] = numeric values, unit inferred, read-out: AurA/TPX2_IC50_IP (Avg)

T1 sequence (Q96GD4 whole entry): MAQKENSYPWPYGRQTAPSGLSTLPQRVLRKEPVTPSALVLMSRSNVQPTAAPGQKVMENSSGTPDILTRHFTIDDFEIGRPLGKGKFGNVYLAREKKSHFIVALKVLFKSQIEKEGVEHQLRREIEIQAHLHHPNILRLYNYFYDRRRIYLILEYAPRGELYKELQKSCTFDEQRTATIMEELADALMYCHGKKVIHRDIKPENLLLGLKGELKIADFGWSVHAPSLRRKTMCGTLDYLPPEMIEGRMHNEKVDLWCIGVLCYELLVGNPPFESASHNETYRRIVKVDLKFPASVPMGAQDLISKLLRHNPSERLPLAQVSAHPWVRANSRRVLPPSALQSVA

Row | Compound | IC50 (AuroraB; [2]) [nM] | IC50 (AuroraA-TPX2; [3]) [nM] | other results
1 | N#Cc1cccc(-c2ccncc2)c1Oc1ccc(Nc2nnc(-c3ccccc3)c3ccccc23)cc1 [compound 436] | ≤ 100 | 100 to 500 | –
2 | CNc1nccc(-c2cccnc2Oc2ccc(Nc3nnc(-c4cc(C)cs4)c4c3CCC4)cc2)n1 [Example 122, N-(4-((3-(2-(methylamino)-4-pyrimidinyl)-2-pyridinyl)oxy)phenyl)-4-(4-methyl-2-thienyl)-6,7-dihydro-5H-cyclopenta[d] pyridazin-1-amine] | – | – | EC50 [1]: < 10000 nM; EC50 ([1]; unit inferred): < 1000 nM
3 | COCc1cccc(-c2nnc(Nc3ccc(Oc4ncccc4-c4ccnc(N)n4)cc3)c3ccccc23)n1 [compound 298] | ≤ 100 | ≤ 100 | –
4 | COc1ccccc1-c1nnc(Nc2ccc(Oc3ncccc3-c3ccnc(N)n3)nc2)c2ccccc12 [compound 440] | ≤ 100 | ≤ 100 | –
5 | CNc1cc(-c2cnccc2Oc2ccc(Nc3nnc(-c4ccccc4)c4ccccc34)cc2)ccn1 [Example 242, N-(4-(3-(2-(methylamino)pyridin-4-yl)pyridin-4-yloxy)phenyl)-4-phenylphthalazin-1-amine] | – | – | IC50 (AuroraB; [4]): ≤ 100 nM; IC50 (AuroraA-TPX2; [5]): ≤ 100 nM
6 | CCc1cc(-c2ccccc2)nnc1Nc1ccc(Oc2ncccc2-c2ccnc(N)n2)nc1 [compound 439] | ≤ 100 | ≤ 100 | –
7 | Cc1cccc(-c2nnc(Nc3ccc(Oc4ncccc4-c4ccnc(N)n4)cc3)c3ccccc23)n1 [compound 271] | – | – | IC50 (AuroraB; numeric values, read-out: AurB_IC50_IP (Avg)): 1 nM; IC50 (AuroraA-TPX2; numeric values, read-out: AurA/TPX2_IC50_IP (Avg)): 24.3 nM
8 | O=C(O)CCCNc1nccc(-c2cccnc2Oc2ccc(Nc3nnc(-c4ccccc4)c4ccccc34)cc2)n1 [compound 427] | ≤ 100 | ≤ 100 | –
9 | Cc1csc(-c2nnc(Nc3ccc(Oc4ncccc4-c4ccnc(N)c4)cc3)c3ccccc23)c1 [compound 416] | – | – | IC50 (AuroraB; [6]): 14.5 nM; IC50 (AuroraA-TPX2; [7]): 54.1 nM
10 | CCCc1cc(-c2ccccc2)nnc1Nc1ccc(Oc2ncccc2-c2ccnc(N)n2)cc1 [compound 445] | – | – | IC50 (AuroraB; [6]): 3.1 nM; IC50 (AuroraA-TPX2; [7]): 23.5 nM
11 | COc1cccc(-c2nnc(Nc3ccc(Oc4ncccc4-c4ccnc(N)n4)cc3)c3ccccc23)c1 [compound 438] | ≤ 100 | ≤ 100 | –
12 | CNc1nccc(-c2cccnc2Oc2ccc(Oc3nnc(-c4ccccc4)c4ccccc34)cc2)n1 [Example 244, N-methyl-4-(2-(4-(4-phenylphthalazin-1-yloxy)phenoxy)pyridin-3-yl)pyrimidin-2-amine] | – | – | IC50 (AuroraB; [4]): ≤ 100 nM; IC50 (AuroraA-TPX2; [5]): ≤ 100 nM
13 | Nc1cc(-c2cccnc2Oc2ccc(Nc3nnc(-c4ccccc4)c4ccccc34)cn2)ccn1 [compound 431] | ≤ 100 | ≤ 100 | –
14 | CCc1cc(-c2ccccc2)nnc1Nc1ccc(Oc2ncccc2-c2ccnc(N)c2)cc1 [compound 420] | – | – | IC50 (AuroraB; [6]): 7.1 nM; IC50 (AuroraA-TPX2; [7]): 56.8 nM
15 | Cc1cc(-c2ccccc2)nnc1Nc1ccc(Oc2ncccc2-c2ccnc(NCCCC(=O)O)n2)cc1 [compound 430] | ≤ 100 | ≤ 100 | –
16 | CCc1cc(-c2ccccc2)nnc1Nc1ccc(Oc2ncccc2-c2ccnc(N)n2)cc1 [compound 435] | ≤ 100 | ≤ 100 | –
17 | COc1cccc(-c2ccncc2)c1Oc1ccc(Nc2nnc(-c3ccccc3)c3ccccc23)cc1 [compound 448] | – | – | IC50 (AuroraB; [6]): 9.6 nM; IC50 (AuroraA-TPX2; [7]): 110 nM

Row | Compound | IC50 (AuroraB; [2]) [nM] | IC50 (AuroraA-TPX2; [3]) [nM] | other results
18 | Nc1nccc(-c2cccnc2Oc2ccc(Nc3nnc(-c4ccccc4)c4ccccc34)cn2)n1 [compound 415] | ≤ 100 | ≤ 100 | –
19 | Cc1csc(-c2cc(C)c(Nc3ccc(Oc4ncccc4-c4ccnc(N)c4)cc3)nn2)c1 [compound 419] | ≤ 100 | ≤ 100 | –
20 | COc1ccccc1-c1nnc(Nc2ccc(Oc3ncccc3-c3ccnc(N)n3)cc2)c2ccccc12 [compound 437] | ≤ 100 | ≤ 100 | –
21 | c1ccc(-c2nnc(Nc3ccc(Oc4ncncc4-c4ccncc4)cc3)c3ccccc23)cc1 [Example 243, 4-phenyl-N-(4-(5-(pyridin-4-yl)pyrimidin-4-yloxy)phenyl)phthalazin-1-amine] | – | – | IC50 (AuroraB; [4]): ≤ 100 nM; IC50 (AuroraA-TPX2; [5]): ≤ 100 nM
22 | COc1ccccc1-c1nnc(Nc2ccc(Oc3ncccc3-c3ccnc(N)c3)cc2)c2ccccc12 [compound 442] | – | – | IC50 (AuroraB; [6]): 33 nM; IC50 (AuroraA-TPX2; [7]): 375 nM
23 | Cc1cc(-c2ccccc2)nnc1Nc1ccc(Oc2ncccc2-c2ccnc(NCCCO)n2)cc1 [compound 429] | ≤ 100 | ≤ 100 | –
24 | COCc1cc(-c2ccccc2)nnc1Nc1ccc(Oc2ncccc2-c2ccnc(N)n2)cc1 [compound 446] | ≤ 100 | ≤ 100 | –
25 | COc1cccc(-c2nnc(Nc3ccc(Oc4ncccc4-c4ccnc(N)c4)cc3)c3ccccc23)c1 [compound 441] | 100 to 500 | 100 to 500 | –
26 | CC(C)c1nnc(Nc2ccc(Oc3ncccc3-c3ccnc(N)n3)nc2)c2ccccc12 [compound 269] | – | 100 to 500 | –
27 | CCc1cc(-c2ccccc2)nnc1Nc1ccc(Oc2ncccc2-c2ccnc(N)c2)nc1 [compound 444] | ≤ 100 | 100 to 500 | –
28 | O=c1cc(-c2cccnc2Oc2ccc(Nc3nnc(-c4ccccc4)c4ccccc34)cc2)cc[nH]1 [compound 432] | 500 to 2500 | – | –
29 | Cc1csc(-c2cc(C)c(Nc3ccc(Oc4ncccc4-c4ccncc4)cc3)nn2)c1 [compound 428] | ≤ 100 | ≤ 100 | –
30 | Oc1cccc(-c2ccncc2)c1Oc1ccc(Nc2nnc(-c3ccccc3)c3ccccc23)cc1 [compound 447] | 500 to 2500 | – | –
31 | COc1cccc(-c2cc(C)c(Nc3ccc(Oc4ncccc4-c4ccnc(N)n4)cc3)nn2)c1 [compound 443] | ≤ 100 | ≤ 100 | –
32 | Cc1cc(-c2ccccc2)nnc1Nc1ccc(Oc2ncccc2-c2ccnc(N)c2)cc1 [compound 418] | ≤ 100 | ≤ 100 | –
33 | Cc1csc(-c2cc(C)c(Nc3ccc(Oc4ncccc4-c4ccnc(N)c4)cc3)nn2)n1 [compound 434] | – | – | IC50 (AuroraB; [6]): 9.5 nM; IC50 (AuroraA-TPX2; [7]): 98.6 nM
